Assay results: patent US20210386736A1, “COMBINATION THERAPY FOR TREATING CANCER” (AstraZeneca AB, priority 2018, published 2021)

Columns and labels:
[1] = test system: HL-60 AML cells; assay: HL-60 subcutaneous AML xenograft, tumor volume over time; type: in vivo, SCID mice; conditions: FIG. 2; AZD2811 nanoparticles 50, 25, 12.5 or 6.25 mg/kg iv once weekly, venetoclax 100 mg/kg orally daily, 3 weekly cycles; combination benefit notably at the lowest doses of AZD2811
Protocol: HL-60: 1×10^7 HL-60 AML cells in 50% matrigel were implanted subcutaneously on the left flank of adult female SCID mice. Mice were randomised by tumor volume at D7 into groups of 8, with an average tumor volume of 0.2 cm^3 and all dosing was started. AZD2811 nanoparticles were dosed at once weekly with a 20-30 s intravenous infusion at either 50 mg/kg, 25 mg/kg, 12.5 mg/kg and 6.25 mg/kg (100 mg/kg was the maximum tolerated dose in combination with venetoclax (ABT-199) 100 mg/kg; venetoclax was administered orally daily at 100 mg/kg). All drugs were given for 3 weekly cycles. For both models, tumors were measured twice weekly by single operators, and all dosing was performed by randomised cage to minimise systematic bias. For the MOLM-13 orthotopic model, 1×10^6 MOLM-13 cells were injected into the tail vien of adult female NOG mice. After 3 days, mice were randomised by body-weight into groups of 8 and treatment was commenced the following day. AZD2811 nanoparticles were dosed at once weekly with a 20-30 s intravenous infusion at 25 mg/kg (25 mg/kg was the maximum tolerated dose in combination with venetoclax (ABT-199) 100 mg/kg; venetoclax was administered orally daily at 100 mg/kg). […] All drugs were given for 2 weekly cycles, the study endpoint was determined by a welfare scoring table.

[2] = test system: KG1a AML cells; assay: KG1a subcutaneous AML xenograft, tumor volume over time; type: in vivo, SCID mice; conditions: FIG. 1; AZD2811 nanoparticles 100 mg/kg iv once weekly, venetoclax 100 mg/kg orally daily, 3 weekly cycles
Protocol: KGa1: 2×10^7 KG1a AML cells in 50% matrigel were implanted subcutaneously on the left flank of adult female SCID mice. Mice were randomised by tumor volume at D7 into groups of 8, with an average tumor volume of 0.2 cm^3 and all dosing was started. AZD2811 nanoparticles were dosed at once weekly with a 20-30 s intravenous infusion at either 100 mg/kg (100 mg/kg was the maximum tolerated dose in combination with venetoclax (ABT-199) 100 mg/kg; venetoclax was administered orally daily at 100 mg/kg). All drugs were given for 3 weekly cycles.
HL-60: 1×10^7 HL-60 AML cells in 50% matrigel were implanted subcutaneously on the left flank of adult female SCID mice. Mice were randomised by tumor volume at D7 into groups of 8, with an average tumor volume of 0.2 cm^3 and all dosing was started. AZD2811 nanoparticles were dosed at once weekly with a 20-30 s intravenous infusion at either 50 mg/kg, 25 mg/kg, 12.5 mg/kg and 6.25 mg/kg (100 mg/kg was the maximum tolerated dose in combination with venetoclax (ABT-199) 100 mg/kg; venetoclax was administered orally daily at 100 mg/kg). All drugs were given for 3 weekly cycles. For both models, tumors were measured twice weekly by single operators, and all dosing was performed by randomised cage to minimise systematic bias. […] All drugs were given for 2 weekly cycles, the study endpoint was determined by a welfare scoring table.

For `CC1(C)CCC(CN2CCN(c3ccc(C(=O)NS(=O)(=O)c4ccc(NCC5CCOCC5)c([N+](=O)[O-])c4)c(Oc4cnc5[nH]ccc5c4)c3)CC2)=C(c2ccc(Cl)cc2)C1` [venetoclax, Venetoclax], the “efficacy (HL-60 tumor volume over time)” value [1] was “active” and the “efficacy (KG1a tumor volume over time)” value [2] was “modestly efficacious”.
